This note sets out measurements from patent US12187684B2, “Benzimidazole derivatives as modulators of retinoid-related orphan receptor gamma (RORγ) and pharmaceutical use thereof” (Jiangsu Hengrui Medicine Co., Ltd., priority 2018, dated 2025).

In this assay the target is T1, RORγ LBD-GST tagged (Homo sapiens, UniProt P51449).
T1 construct: RORγ LBD-GST tagged (Cat No. RORC-114H, Creative Biomart); purchased Creative Biomart RORC-114H
T1 sequence (P51449 269-508 limits assumed): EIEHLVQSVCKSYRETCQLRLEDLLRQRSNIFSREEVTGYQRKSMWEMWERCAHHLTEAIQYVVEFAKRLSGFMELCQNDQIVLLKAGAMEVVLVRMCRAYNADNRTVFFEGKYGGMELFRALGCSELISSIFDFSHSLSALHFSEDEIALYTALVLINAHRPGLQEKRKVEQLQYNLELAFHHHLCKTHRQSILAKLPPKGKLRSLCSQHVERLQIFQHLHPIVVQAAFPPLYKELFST
Description: LanthaScreen TR-FRET RORγ coactivator assay. The note with it: Fluorescein-D22 coactivator peptide, 1 hour room temperature. It counts as biochemical. From the text:
LanthaScreen TR-FRET Retinoid-Related Orphan Receptor Gamma (RORγ) Coactivator Assay Materials and Reagents • 1. […] Fluorescein-D22 coactivator peptide (Cat No. PV4386, Invitrogen) • 3. LanthaScreen™ Tb anti-GST antibody (Cat No. PV3550, Invitrogen) • 4. TR-FRET coregulatory buffer D (Cat No, PV4420, Invitrogen) • 5. DTT (Cat No. P2325, Fisher) • 6. […] Tecan Infinite M1000 plate reader (Tecan) Experimental Procedure Prepare Complete TR-FRET Coregulator Buffer D by adding 1 M DTT to TR-FRET Coregulator Buffer D to the final concentration of 5 mM DTT. Make compound dilution in Complete TR-FRET Coregulator Buffer D. Highest dose is 3 μM, 7-folder dilution for total 7 doses. Add 10 μL to each well of a 384-well plate. For the negative and positive controls, add 10 μL of Complete TR-FRET Coregulator Buffer D. Prepare RORγ LBD using Complete TR-FRET Coregulator Buffer D. The final concentration of RORγ LBD is 25 ng/reaction. Add 5 μL RORγ LBD to all the wells of the 384-well assay plate except negative wells which adding 5 μL Complete TR-FRET Coregulator Buffer D. Prepare a solution containing 0.6 μM Fluorescein-D22 and 8 nM Tb anti-GST antibody using Complete TR-FRET Coregulator Buffer D. Add 5 μL to all wells of the 384-well assay plate. Briefly and gently mix the 384-well plate on a plate shaker and incubate at room temperature protected from light for 1 hour. The plate may be sealed with a cover to minimize evaporation. Read the plate at wavelengths of 520 nm and 495 nm on Tecan Infinite M1000. IC50 values were calculated using GraphPad Prism by plotting the logarithm of compounds concentration versus percent inhibition.
On the technique in general: Time-resolved FRET reads energy transfer from a long-lived donor to a nearby acceptor.
In turn, `CCS(=O)(=O)c1ccc(C(CCO)c2nc3c(Cl)c(N4CCC(F)(F)CC4)c(Cl)cc3[nH]2)cc1` (single isomer, unassigned) [3-(4,6-dichloro-5-(4,4-difluoropiperidin-1-yl)-1H-benzo[d]imidazol-2-yl)-3-(4-(ethylsulfonyl)phenyl)propan-1-ol] gave an IC50 of 0.093 µM.
The molecule `CCS(=O)(=O)c1ccc(C(CC(N)=O)c2nc3c(Cl)c(N4CCC(F)(F)CC4)c(Cl)cc3[nH]2)cc1` (single isomer, unassigned) [3-(4,6-dichloro-5-(4,4-difluoropiperidin-1-yl)-1H-benzo[d]imidazol-2-yl)-3-(4-(ethylsulfonyl)phenyl)propanamide] displayed an IC50 of 0.057 µM.
Turning to `NC(=O)CC(c1ccc(S(=O)(=O)CC2CC2)cc1)c1nc2cc(Cl)c(N3CCC(F)(F)CC3)c(Cl)c2[nH]1` (single isomer, unassigned) [3-(4-((cyclopropylmethyl)sulfonyl)phenyl)-3-(5,7-dichloro-6-(4,4-difluoropiperidin-1-yl)-1H-benzo[d]imidazol-2-yl)propanamide], the IC50 was 0.014 µM.
The figure for `O=S(=O)(CC1CC1)c1ccc(C(CCO)c2nc3cc(-c4ccccc4OC(F)F)c(Cl)cc3[nH]2)cc1` (single isomer, unassigned) [3-(6-chloro-5-(2-(difluoromethoxy)phenyl)-1H-benzo[d]imidazol-2-yl)-3-(4-((cyclopropylmethyl)sulfonyl)phenyl)propan-1-ol] is 0.081 µM.
Under `NC(=O)CC(c1ccc(S(=O)(=O)CC2CC2)cc1)c1nc2cc(-c3ccccc3OC(F)F)c(Cl)cc2[nH]1` (single isomer, unassigned) [3-(6-chloro-5-(2-(difluoromethoxy)phenyl)-1H-benzo[d]imidazol-2-yl)-3-(4-((cyclopropylmethyl)sulfonyl)phenyl)propanamide] stands 0.21 µM.
In turn, `CC(C)Oc1ccccc1-c1cc2nc(C(CCO)c3ccc(S(=O)(=O)CC4CC4)cc3)[nH]c2cc1Cl` (single isomer, unassigned) [3-(6-chloro-5-(2-isopropoxyphenyl)-1H-benzo[d]imidazol-2-yl)-3-(4-((cyclopropylmethyl)sulfonyl)phenyl)propan-1-ol] registered an IC50 of 0.787 µM.
`CC(C)Oc1ccccc1-c1cc2nc(C(CC(N)=O)c3ccc(S(=O)(=O)CC4CC4)cc3)[nH]c2cc1Cl` (single isomer, unassigned) [3-(6-chloro-5-(2-isopropoxyphenyl)-1H-benzo[d]imidazol-2-yl)-3-(4-((cyclopropylmethyl)sulfonyl)phenyl)propanamide] registered an IC50 of 1.41 µM.
The figure for `CCS(=O)(=O)c1ccc(C(O)c2nc3c(Cl)c(-c4ccccc4)c(Cl)cc3[nH]2)cc1` (stereo not drawn) [Example 2, (4,6-dichloro-5-phenyl-1H-benzo[d]imidazol-2-yl)(4-(ethylsulfonyl)phenyl)methanol] is 0.467 µM; for `CCS(=O)(=O)c1ccc(Cc2nc3c(Cl)c(-c4ccccc4OC(C)C)c(Cl)cc3[nH]2)cc1` [Example 8, 4,6-dichloro-2-(4-(ethylsulfonyl)benzyl)-5-(2-isopropoxyphenyl)-1H-benzo[d]imidazole] it is 0.903 µM.
In the case of `CCS(=O)(=O)c1ccc(C(O)c2nc3c(Cl)c(-c4ccccc4OC(C)C)c(Cl)cc3[nH]2)cc1` (stereo not drawn) [Example 10, (4,6-dichloro-5-(2-isopropoxyphenyl)-1H-benzo[d]imidazol-2-yl)(4-(ethylsulfonyl)phenyl)methanol], the IC50 stood at 0.056 µM.
Take `CCS(=O)(=O)c1ccc(C(CO)c2nc3c(Cl)c(-c4ccccc4F)c(Cl)cc3[nH]2)cc1` (stereo not drawn) [Example 11, 2-(4,6-dichloro-5-(2-fluorophenyl)-1H-benzo[d]imidazol-2-yl)-2-(4-(ethylsulfonyl)phenyl)ethanol]: half-maximal inhibition (IC50) required 0.242 µM.
Regarding `CCS(=O)(=O)c1ccc(C(O)c2nc3c(Cl)c(-c4ccccc4F)c(Cl)cc3[nH]2)cc1` (stereo not drawn) [Example 12, (4,6-dichloro-5-(2-fluorophenyl)-1H-benzo[d]imidazol-2-yl)(4-(ethylsulfonyl)phenyl)methanol], the IC50 was 0.106 µM.
Turning to `CCS(=O)(=O)c1ccc(C(O)c2nc3c(Cl)c(-c4cc(Cl)ccc4Cl)c(Cl)cc3[nH]2)cc1` (stereo not drawn) [Example 15, (4,6-dichloro-5-(2,5-dichlorophenyl)-1H-benzo[d]imidazol-2-yl)(4-(ethylsulfonyl)phenyl)methanol], the IC50 stood at 0.787 µM.
In turn, `CCOc1ccccc1-c1c(Cl)cc2[nH]c(Cc3ccc(S(=O)(=O)CC)cc3)nc2c1Cl` [Example 16, 4,6-dichloro-5-(2-ethoxyphenyl)-2-(4-(ethylsulfonyl)benzyl)-1H-benzo[d]imidazole] had an IC50 of 0.626 µM.
Under `CCOc1ccccc1-c1c(Cl)cc2[nH]c(C(CO)c3ccc(S(=O)(=O)CC)cc3)nc2c1Cl` (stereo not drawn) [Example 17, 2-(4,6-dichloro-5-(2-ethoxyphenyl)-1H-benzo[d]imidazol-2-yl)-2-(4-(ethylsulfonyl)phenyl)ethanol] stands 0.097 µM; under `CCOc1ccccc1-c1c(Cl)cc2[nH]c(C(O)c3ccc(S(=O)(=O)CC)cc3)nc2c1Cl` (stereo not drawn) [Example 18, (4,6-dichloro-5-(2-ethoxyphenyl)-1H-benzo[d]imidazol-2-yl)(4-(ethylsulfonyl)phenyl)methanol], 0.013 µM.
Turning to `CCS(=O)(=O)c1ccc(C(CO)c2nc3c(Cl)c(-c4ccccc4C#N)c(Cl)cc3[nH]2)cc1` (stereo not drawn) [Example 22, 2-(4,6-dichloro-2-(1-(4-(ethylsulfonyl)phenyl)-2-hydroxyethyl)-1H-benzo[d]imidazol-5-yl)benzonitrile], half-maximal inhibition (IC50) required 0.219 µM.
Under `CCS(=O)(=O)c1ccc(Cc2nc3c(Cl)c(-c4ccsc4)c(Cl)cc3[nH]2)cc1` [Example 24, 4,6-dichloro-2-(4-(ethylsulfonyl)benzyl)-5-(thiophen-3-yl)-1H-benzo[d]imidazole] stands 0.701 µM; under `CCS(=O)(=O)c1ccc(C(CO)c2nc3c(Cl)c(-c4ccsc4)c(Cl)cc3[nH]2)cc1` (stereo not drawn) [Example 25, 2-(4,6-dichloro-5-(thiophen-3-yl)-1H-benzo[d]imidazol-2-yl)-2-(4-(ethylsulfonyl)phenyl)ethanol], 0.789 µM.
Molecule `CCS(=O)(=O)c1ccc(C(O)c2nc3c(Cl)c(-c4ccsc4)c(Cl)cc3[nH]2)cc1` (stereo not drawn) [Example 26, (4,6-dichloro-5-(thiophen-3-yl)-1H-benzo[d]imidazol-2-yl)(4-(ethylsulfonyl)phenyl)methanol] yielded an IC50 of 0.465 µM.
In the case of `CCS(=O)(=O)c1ccc(Cc2nc3c(Cl)c(-c4ccccc4N(C)C)c(Cl)cc3[nH]2)cc1` [Example 27, 2-(4,6-dichloro-2-(4-(ethylsulfonyl)benzyl)-1H-benzo[d]imidazol-5-yl)-N,N-dimethylaniline], the IC50 turned out to be 0.489 µM.
For `CCS(=O)(=O)c1ccc(Cc2nc3c(Cl)c(-c4ccccc4OC(F)F)c(Cl)cc3[nH]2)cc1` [Example 28, 4,6-dichloro-5-(2-(difluoromethoxy)phenyl)-2-(4-(ethylsulfonyl)benzyl)-1H-benzo[d]imidazole], the midpoint of inhibition, the IC50, lay at 0.045 µM.
In turn, `CCS(=O)(=O)c1ccc(Cc2nc3c(Cl)c(-c4ccccc4C(C)C)c(Cl)cc3[nH]2)cc1` [Example 36, 4,6-dichloro-2-(4-(ethylsulfonyl)benzyl)-5-(2-isopropylphenyl)-1H-benzol[d]imidazole] came in with an IC50 of 0.348 µM.
Turning to `CCS(=O)(=O)c1ccc(C(CO)c2nc3c(Cl)c(-c4ccccc4C(C)C)c(Cl)cc3[nH]2)cc1` (stereo not drawn) [Example 37, 2-(4,6-dichloro-5-(2-isopropylphenyl)-1H-benzo[d]imidazol-2-yl)-2-(4-(ethylsulfonyl)phenyl)ethanol], it took 0.433 µM to reach half-maximal inhibition (IC50).
`CCS(=O)(=O)c1ccc(C(NC(C)=O)c2nc3c(Cl)c(-c4ccccc4OC(F)F)c(Cl)cc3[nH]2)cc1` (stereo not drawn) [Example 40, N-((4,6-dichloro-5-(2-(difluoromethoxy)phenyl)-1H-benzo[d]imidazol-2-yl)(4-(ethylsulfonyl)phenyl)methyl)acetamide] returned an IC50 of 0.083 µM.
Regarding `CCS(=O)(=O)c1ccc(C(NC(=O)COC)c2nc3c(Cl)c(-c4ccccc4OC(F)F)c(Cl)cc3[nH]2)cc1` (stereo not drawn) [Example 41, N-((4,6-dichloro-5-(2-(difluoromethoxy)phenyl)-1H-benzo[d]imidazol-2-yl)(4-(ethylsulfonyl)phenyl)methyl)-2-methoxyacetamide], the IC50 came out at 0.683 µM.
Take `CCS(=O)(=O)c1ccc(C(NC(=O)c2c(C)noc2C)c2nc3c(Cl)c(-c4ccccc4OC(F)F)c(Cl)cc3[nH]2)cc1` (stereo not drawn) [Example 42, N-((4,6-dichloro-5-(2-(difluoromethoxy)phenyl)-1H-benzo[d]imidazol-2-yl)(4-(ethylsulfonyl)phenyl)methyl)-3,5-dimethylisoxazole-4-carboxamide]: half-maximal inhibition (IC50) required 0.113 µM.

What is called IC50 is the concentration that inhibits the measured activity by half. Read a high IC50 as weaker potency.
